Our source for the EC50 values is patent publication US6545026B1, “Substituted benzylthiazolidine-2,4-dione derivatives” (Kyorin Pharmaceutical Co., Ltd., priority 1999, dated 2003).

Like-named read-outs stand apart in the source and are kept apart here.

Assay [1] deals with T1, fused protein of DNA-binding domain of yeast transcription factor with ligand-binding domain of human type PPAR α (Homo sapiens, UniProt Q07869).
T1 sequence (Q07869 239-466 limits assumed): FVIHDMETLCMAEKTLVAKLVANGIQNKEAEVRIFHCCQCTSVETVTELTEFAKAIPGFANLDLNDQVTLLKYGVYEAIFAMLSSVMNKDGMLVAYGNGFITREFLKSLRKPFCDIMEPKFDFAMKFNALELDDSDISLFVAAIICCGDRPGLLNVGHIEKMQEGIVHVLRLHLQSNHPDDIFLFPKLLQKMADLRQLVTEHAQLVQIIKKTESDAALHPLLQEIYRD
Nature of the assay: Test of transactivation on peroxisome proliferator-activated receptor α (CHO cells, reporter assay). (In general: In a reporter assay the amount or activity of a reporter protein is the signal.)
Description: (§1) Test of transactivation on peroxisome proliferator-activated receptors α and γ
(§2) After 24 hours, CAT activity and γ-galactosidase activity were measured.

The target of assay [2] is T2, fused protein of DNA-binding domain of yeast transcription factor with ligand-binding domain of human type PPAR γ (Homo sapiens, UniProt P37231).
T2 sequence (P37231 238-503 limits assumed): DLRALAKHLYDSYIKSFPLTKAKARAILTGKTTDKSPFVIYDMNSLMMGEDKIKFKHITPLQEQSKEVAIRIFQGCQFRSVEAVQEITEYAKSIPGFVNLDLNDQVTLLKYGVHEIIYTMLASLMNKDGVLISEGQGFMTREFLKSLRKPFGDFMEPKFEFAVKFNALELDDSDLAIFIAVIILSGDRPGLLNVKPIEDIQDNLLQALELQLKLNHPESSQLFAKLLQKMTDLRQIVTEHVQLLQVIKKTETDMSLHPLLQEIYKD
Nature of the assay: Test of transactivation on peroxisome proliferator-activated receptor γ (CHO cells, reporter assay).
Description: as §1, §2

A word on the EC50: it is the concentration needed to bring the measured effect to its halfway point. On to `CCCCC/C=C\C/C=C\C=C\[C@@H](O)C/C=C\CCCC(=O)O` [(8S)-HETE, reference compound], for which the EC50 in assay [1] (read-out: Transactivation PPARα EC50, CHO cells, cotransfected receptor and reporter plasmid, 24 hours, CAT activity) came to 1300 nM.

With `COc1ccc(CC2SC(=O)NC2=O)cc1C(=O)NCc1ccncc1` (stereo not drawn) [Example 3, N-[(4-Pyridyl)methyl]-5-[(2,4-dioxothiazolidin-5-yl)methyl]-2-methoxybenzamide], the EC50 is 235 nM in assay [1] and 140 nM in assay [2]. On the same counts, the results for `COc1ccc(CC2SC(=O)NC2=O)cc1C(=O)NCC1CCCCC1` (stereo not drawn) [Example 4, N-(Cyclohexylmethyl)-5-[(2,4-dioxothiazolidin-5-yl)methyl]-2-methoxybenzamide] are 300 nM and 230 nM. The corresponding values for `COc1ccc(CC2SC(=O)NC2=O)cc1C(=O)NCc1cccnc1` (stereo not drawn) [Example 2, N-[(3-Pyridyl)methyl]-5-[(2,4-dioxothiazolidin-5-yl)methyl]-2-methoxybenzamide] are 420 nM and 960 nM.

For `COc1ccc(CC2SC(=O)NC2=O)cc1C(=O)NCc1ccccn1` (stereo not drawn) [Example 1, N-[(2-Pyridyl)methyl]-5-[(2,4-dioxothiazolidin-5-yl)methyl]-2-methoxybenzamide], the 50% effective concentration (EC50) amounted to 353 nM in assay [1] and 300 nM in assay [2].
